Results taken from paper PMC9032346, “Identification of functionally important domains of human cytomegalovirus gO that act after trimer binding to receptors” (PLoS Pathogens, 2022).

Key:
[1] = test system: rabbits; test: Immunization of rabbits with ova-conjugated peptides; type: in vivo, New Zealand White rabbit; conditions: peptides conjugated onto ovalbumin, sera after 3 rounds of immunization
Excerpt: An overlapping peptide library spanning the entire length HCMV gO polypeptide from strain TR was obtained from Genscript Biotech, Piscataway, NJ. The peptides consisted of 20 amino acids in length with 7 amino acid overlap and a biotin moiety conjugated to the C-terminus. A panel of 8 a.a. peptides overlapping by 7 a.a. and a biotin moiety conjugated to the C-terminus that were derived from the protein sequences: 248-[…]-267 or 326-[…]-345 (S2 Table) were also obtained from Genscript Biotech. Peptides derived from the gO polypeptide sequence 235-[…]-267 (peptide 19/20 from overlapping library) and 326-[…]-345 (peptide 26 from overlapping library) were synthesized conjugated onto ovalbumin (ova). These ova-peptides were used to produce New Zealand White rabbit polyclonal sera by priming rabbits with ova-peptides in Freund’s adjuvant then boosting the rabbits with ova-peptides in TiterMax Gold adjuvant (Sigma, St. Louis, MO). Rabbit antibodies specific for peptide 20, 26 and ovalbumin were purified using peptides ova-20 and ova-26 or ova (without peptides) by coupling these proteins to AminoLink (Thermo Scientific).

[2] = test system: Abs present in HCMV seropositive human serum; test: ELISA of biotinylated gO peptides with pooled human transplant sera; type: binding; conditions: biotin peptides 0.5 mM on streptavidin plates, pool of 5 sera diluted to NT100
Procedure: Fig 5 gO peptides recognized by Abs present in HCMV seropositive human serum. The panel of gO peptides with C-terminal biotin tags were incubated in the wells of streptavidin-coated ELISA plates. The wells were washed and then incubated with a pool of 5 different human sera from transplant patients that had been diluted to the NT100 titers. The plates were washed and incubated with goat-anti human-IgG-HRP for 1 h at room temperature, washed, and incubated with Turbo-TMB substrate. Control conditions included no peptide plus human sera (red bar) and wells coated with soluble trimer (instead of peptides) and human sera (green bar). The absorbance values are indicated on the y-axis and the numbers of the individual gO peptides are indicated on the x-axis.
For cell-based ELISA assays, ARPE-19 epithelial or fibroblast cells in 96-well plates were fixed with 4% paraformaldehyde, washed with PBS supplemented with 0.1M glycine pH.7.2, then washed with PBS plus 2% BSA and incubated with soluble trimers or gH/gL complexes at 10 μg/ml (or 20 μg/ml in the case of gO-417) in PBS with 2% BSA at room temperature for 1 h. […] The colorometric reaction was stopped by adding 100 μl of 1M sulfuric acid to the wells and then the substrate development was read in a Molecular Dynamics precision plate reader at a wavelength of 450 nm.

[3] = test system: neutralizing Abs from human serum; test: Depletion of neutralizing Abs from human sera, read out by HCMV neutralization on ARPE-19; type: cell-based
Procedure: Fig 7 gO peptides 20 and 26 deplete neutralizing Abs from human serum. (A) Pooled HCMV seropositive serum was diluted to (NT100) titers then incubated with either no protein, 1μg of soluble trimer, or gO peptides (with biotin): 20, 26, 32 or 33 (each at 0.5 mM) for 1 h at 37°C. […] The trimer was removed using nickel-agarose and peptides removed using streptavidin-agarose. The remaining Abs were tested in neutralization assays involving HCMV (BADrUL131) and ARPE-19 epithelial cells. The relative infectivity of HCMV after incubation with these sera was determined by counting GFP+ (infected) cells after 24 h of infection and compared to the numbers of infected cells following incubation of HCMV with similarly diluted sera from HCMV seronegative donors (sero-neg) Data was collected from three separate wells for each condition. (B and C) Two panels of 8 a.a. peptides with 7 a.a. overlap were derived from peptide 20 (B) or peptide 26 (C). These peptides were tested in depletion assays as in panel A. The relative infectivity of HCMV (BADrUL131) on ARPE-19 epithelial cells was determined and normalized to the level of HCMV infectivity with depletions performed with soluble trimer. Data was collected from a randomly selected field of the same surface area from each well.
These sera were then tested in HCMV neutralization assays as described above.

Row | Sequence | induction of gO-specific NAbs in rabbits [1] | binding of IgG from human transplant sera [2] | HCMV infectivity with sera after depletion ([3]; pooled human transplant sera at NT100, 1 μg soluble trimer or 0.5 mM biotin peptide, 1 h 37°C, relative to seronegative sera, three wells) [%] | depletion of NAbs from human sera ([3]; pooled sera at NT100, 0.5 mM biotin peptide)
1 | FRVPKYINGTKLKNTMRKLKRKQAPVKEQSEKK [Peptide 19/20, peptide containing all of peptides 19 and 20 (a.a. 235-267), conjugated onto ovalbumin] | able to induce gO-specific NAbs | – | – | –
2 | LRDLATWVYTTLRYRQNPFC [Peptide 26, gO (TR) a.a; 326-345, C-terminal biotin; also ova-conjugated for immunization] | able to induce gO-specific NAbs | binding higher quantities of IgG compared with other peptides | 45 | –
3 | TTTPYSPYTTSTALNVTTNA [Peptide 22, gO (TR) a.a; 274-293, C-terminal biotin; negative control in depletion] | – | did not bind substantial IgG | – | retained complete neutralizing capacity
